Columns and labels:
[1] = test system: IL3000 T. congolense (drug sensitive) strain; experiment: In vitro Alamar Blue 72 h drug sensitivity assay for T. congolense; type: cell-based, Trypanosoma congolense; settings: Trypanosoma congolense, 72 h, bloodstream form, 69 h + 3 h Resazurin, 34° C., read-out: IC50: I Org. Growth T. congolense 3 d
In short: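 Bloodstream-form trypanosomes in HMI medium with 20% bovine serum were exposed to compounds for 69 h at 34° C, 5% CO2, then resazurin for another 3 h. Fluorescence read at ex 536/em 588 nm; IC50 from 11-point sigmoidal dose-response curves, at least three independent runs.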

[2] = test system: T. cruzi amastigote (Td Tomato-modified) in Vero cells; experiment: In vitro IC50 measurement of T. cruzi amastigote killing using Td Tomato-modified T. cruzi; type: cell-based; settings: Trypanosoma cruzi, 72 h, fluorescence, read-out: IC50: I Org. amastigote Growth T. cruzi 3 d
In short: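 Vero cells infected with Td Tomato-expressing T. cruzi, treated with compound at 5 uM to 5 nM final, incubated 72 h at 37 °C. Fluorescence (Ex 544/Em 612 nm) read at Day 0 and Day 3, Day 0 subtracted; IC50 and IC90 by nonlinear regression.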

Structure (SMILES) | IC50 [1] [nM] | IC50 [2] [nM]
Cc1c(C(=O)N[C@H](C(=O)OCc2ccc(F)cc2)[C@@H](C)O)ccc2c1B(O)OC2 [Example 6-074, 4-Fluorobenzyl (1-hydroxy-7-methyl-1,3-dihydrobenzo[c][1,2]oxaborole-6-carbonyl)-L-threoninate] | < 0.5 | 21 to 999
COCC(COC)OC(=O)[C@@H](NC(=O)c1ccc2c(c1C)B(O)OC2)C(C)C [Example 6-139, 1,3-Dimethoxypropan-2-yl (1-hydroxy-7-methyl-1,3-dihydrobenzo[c][1,2]oxaborole-6-carbonyl)-L-valinate] | 10 to 5000 | 21 to 999
Cc1c(C(=O)N[C@H](C(=O)OCc2ncc(F)cn2)C(C)C)ccc2c1B(O)OC2 [Example 6-202, (5-fluoropyrimidin-2-yl)methyl (1-hydroxy-7-methyl-1,3-dihydrobenzo[c][1,2]oxaborole-6-carbonyl)-L-valinate] | < 0.5 | ≤ 20
CC[S+]([O-])c1ccc(COC(=O)[C@@H](NC(=O)c2ccc3c(c2C)B(O)OC3)C(C)C)cc1 (stereo partly drawn) [Example 6-094, 4-(Ethylsulfinyl)benzyl (1-hydroxy-7-methyl-1,3-dihydrobenzo[c][1,2]oxaborole-6-carbonyl)-L-valinate] | 0.51 to 9.99 | 21 to 999
Cc1c(C(=O)N[C@H](C(=O)OCc2ccc(F)c(C(F)(F)F)c2)C(C)C)ccc2c1B(O)OC2 [Example 6-049, 4-Fluoro-3-(trifluoromethyl)benzyl (1-hydroxy-7-methyl-1,3-dihydrobenzo[c][1,2]oxaborole-6-carbonyl)-L-valinate] | < 0.5 | ≤ 20
Cc1c(C(=O)N[C@H](C(=O)OCCN2CC(C)OC(C)C2)C(C)C)ccc2c1B(O)OC2 (stereo partly drawn) [Example 6-206, 2-(2,6-dimethylmorpholino)ethyl (1-hydroxy-7-methyl-1,3-dihydrobenzo[c][1,2]oxaborole-6-carbonyl)-L-valinate] | < 0.5 | 21 to 999
Cc1c(C(=O)N[C@H](C(=O)OCC2CCCC2)C(C)(C)O)ccc2c1B(O)OC2 [Example 6-228, Cyclopentylmethyl (S)-3-hydroxy-2-(1-hydroxy-7-methyl-1,3-dihydrobenzo[c][1,2]oxaborole-6-carboxamido)-3-methylbutanoate] | < 0.5 | 21 to 999
Cc1c(C(=O)N[C@H](C(=O)OCc2cscn2)C(C)C)ccc2c1B(O)OC2 [Example 6-128, Thiazol-4-ylmethyl (1-hydroxy-7-methyl-1,3-dihydrobenzo[c][1,2]oxaborole-6-carbonyl)-L-valinate] | < 0.5 | 21 to 999
CSCC[C@H](NC(=O)c1ccc2c(c1)B(O)OC2)C(=O)OCc1ccccc1 [Example 6-008, Benzyl (1-hydroxy-1,3-dihydrobenzo[c][1,2]oxaborole-6-carbonyl)-L-methioninate] | 0.51 to 9.99 | 21 to 999
Cc1c(C(=O)N[C@H](C(=O)OCC(F)(F)C(F)(F)F)C(C)C)ccc2c1B(O)OC2 [Example 6-153, 2,2,3,3,3-Pentafluoropropyl (1-hydroxy-7-methyl-1,3-dihydrobenzo[c][1,2]oxaborole-6-carbonyl)-L-valinate] | < 0.5 | ≤ 20
Cc1c(C(=O)N[C@H](C(=O)OCc2ccc(Cl)c(OCCN3CCOCC3)c2)C(C)C)ccc2c1B(O)OC2 [Example 6-167, 4-Chloro-3-(2-morpholinoethoxy)benzyl (1-hydroxy-7-methyl-1,3-dihydrobenzo[c][1,2]oxaborole-6-carbonyl)-L-valinate] | < 0.5 | ≤ 20
Cc1c(C(=O)N[C@H](C(=O)OCc2ccc(F)cc2)C(C)C)ccc2c1B(O)OC2C (stereo partly drawn) [Example 6-061, 4-Fluorobenzyl (3,7-dimethyl-1-hydroxy-1,3-dihydrobenzo[c][1,2]oxaborole-6-carbonyl)-L-valinate] | 0.51 to 9.99 | 21 to 999
